Experiments:
transthyretin (TTR) = target: T1, transthyretin (TTR) (Homo sapiens, UniProt P02766); experiment: Thyroxine (T4) binding competition by gel electrophoresis in plasma, TTR band; conditions: for T4 bound to TTR: human plasma, [125I]T4, in presence of compound
T1 construct: from tissue; host or cells: human plasma
Procedure: (§1) Briefly, upon incubation of human plasma in the presence of the test compounds and radio-labeled T4 ([125I]T4), the samples are subjected to native PAGE. After electrophoresis, the gels are dried, subjected to phosphor imaging, and the intensity of the protein bands is then compared. […] The intensity of the bands decreases, as compared to the control samples (absence of compound), if the compound binds to the protein(s) competing with T4.
FIG. 24 presents the results of these experiments, where the bands in the gel correspond to the major T4 binding plasma proteins. The intensity of the bands decreases, as compared to the control samples (absence of compound), if the compound binds to the protein(s) competing with T4. The results were analyzed by calculation of the TTR/total (TTR+ALB+TBG) ratio for each sample collected at different time points. The displacement of T4 from TTR is calculated and plotted as the difference between the average of ratios of TTR/total protein for each control sample and the average of the ratios of TTR/total protein.
The assay for the binding to TTR through competition with T4 is performed by T4 binding gel electrophoresis as previously described in reference.
Five (5) μL of human plasma plus 0.25-0.5 μL of [125I]T4 (specific radioactivity 1250 μCi/m; concentration 320 μCi/mL; Perkin Elmer, Boston, Mass., U.S.A.) plus 5 μL of PBS with glycerol 50% are incubated for 1 hour at room temperature (RT) and the samples are subjected to native PAGE. After electrophoresis, the gels are dried, subjected to phosphor imaging (Typhoon 8600; Molecular Diagnostics, Amersham Biosciences), and analyzed using the ImageQuant program version 5.1. The intensity of the protein bands is compared. […]
The results are analyzed by calculation of the TTR/total (TTR+ALB+TBG) ratio for each sample collected at different time points. The displacement of T4 from TTR is calculated as the difference between the average of ratios of TTR/total protein for each control sample and the average of the ratios of TTR/total protein.

albumin (ALB) = target: T2, albumin (ALB) (Homo sapiens, UniProt P02768); experiment: Thyroxine (T4) binding competition by gel electrophoresis in plasma, albumin band; conditions: [125I]T4, in presence of compound
T2 construct: from tissue; host or cells: human plasma
T2 sequence (P02768 25-609): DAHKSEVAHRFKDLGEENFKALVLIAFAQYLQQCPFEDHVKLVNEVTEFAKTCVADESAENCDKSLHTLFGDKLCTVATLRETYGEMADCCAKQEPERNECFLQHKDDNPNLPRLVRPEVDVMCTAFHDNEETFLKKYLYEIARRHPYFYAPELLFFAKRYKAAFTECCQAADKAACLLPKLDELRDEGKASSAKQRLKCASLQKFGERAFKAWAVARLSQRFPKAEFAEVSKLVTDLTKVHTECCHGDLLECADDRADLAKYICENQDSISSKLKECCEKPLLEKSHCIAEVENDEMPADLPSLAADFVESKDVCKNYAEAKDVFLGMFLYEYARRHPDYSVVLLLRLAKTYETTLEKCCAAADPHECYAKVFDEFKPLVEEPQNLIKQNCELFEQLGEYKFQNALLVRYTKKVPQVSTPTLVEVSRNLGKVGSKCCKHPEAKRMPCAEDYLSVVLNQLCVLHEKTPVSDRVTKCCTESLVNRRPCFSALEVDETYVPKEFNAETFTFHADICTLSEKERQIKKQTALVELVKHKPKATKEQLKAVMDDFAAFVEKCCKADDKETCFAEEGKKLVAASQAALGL
Procedure: as §1
FIG. 24 presents the results of these experiments, where the bands in the gel correspond to the major T4 binding plasma proteins. […] The results were analyzed by calculation of the TTR/total (TTR+ALB+TBG) ratio for each sample collected at different time points. The displacement of T4 from TTR is calculated and plotted as the difference between the average of ratios of TTR/total protein for each control sample and the average of the ratios of TTR/total protein. […]
Five (5) μL of human plasma plus 0.25-0.5 μL of [125I]T4 (specific radioactivity 1250 μCi/m; concentration 320 μCi/mL; Perkin Elmer, Boston, Mass., U.S.A.) plus 5 μL of PBS with glycerol 50% are incubated for 1 hour at room temperature (RT) and the samples are subjected to native PAGE. After electrophoresis, the gels are dried, subjected to phosphor imaging (Typhoon 8600; Molecular Diagnostics, Amersham Biosciences), and analyzed using the ImageQuant program version 5.1. […]

FAP patients = conditions: 18-month phase-III clinical trial; cited from earlier work
human plasma TTR = target: T3, human plasma TTR (Homo sapiens, UniProt P02766); experiment: Tetrameric TTR stability by isoelectric focusing (IEF) of plasma TTR, ex vivo; format: biochemical; conditions: human plasma incubated with compound; control (vehicle) 0.717
T3 construct: from tissue; host or cells: human plasma
Procedure: To perform the assay, 30 μL of human plasma are incubated with 5 μL of a 10 mM solution of test compounds and control compounds overnight at 4° C. followed by a 1 hour incubation at room temperature. The preparations are subjected to native PAGE. The gel band containing TTR is then excised and applied to an IEF gel and IEF is carried out in semi-denaturing conditions. Proteins are stained with Coomassie Blue, the gels are scanned and subjected to densitometry. The results are expressed as the ratio of TTR tetramer over the total TTR species present, reflecting TTR stability.
After treatment with the test compounds, TTR was separated by PAGE and the isolated protein was analyzed by IEF.
To perform the assay, 30 μL of human plasma are incubated with 5 μL of a 10 mM solution of test compounds and control compounds overnight at 4° C. followed by a 1 hour incubation at RT. The preparations are subjected to native PAGE and the gel band containing TTR is excised and applied to an IEF gel. IEF is carried out in semi-denaturing conditions (4 M urea), containing 5% (v/v) ampholytes pH 4-6.5 (GE Healthcare), at 1200 V for 6 hours. Proteins are stained with Coomassie Blue, the gels are scanned and subjected to densitometry using the ImageQuant program. The results are expressed as the ratio of TTR tetramer over total TTR.

SMILES	T4 bound to TTR (transthyretin (TTR)) [%]	T4 bound to ALB (albumin (ALB)) [%]	FAP patients with improvement of symptoms (FAP patients)	competition with T4 (in words) (transthyretin (TTR); T4 competition and gel electrophoresis)	tetramer/monomer ratio (IEF densitometry) (human plasma TTR)
O=C(O)c1ccc2nc(-c3cc(Cl)cc(Cl)c3)oc2c1 [Tafamidis, reference compound]	14.4	32.0	approximately 60%		
COc1cc(/C=C2\SC(=S)N(CC(=O)O)C2=O)cc(Cl)c1O [AT50-A00 (Z), (Z)-3-hydroxycarbonylmethyl-5-(3′-chloro-4′-hydroxy-5′-methoxyphenylmethylidene)-2-thioxothiazolidin-4-one]	14.2	31.5		competes with T4	0.838

Source: patent US11584727B2, “2-thioxothiazolidin-4-one derivatives active as transthyretin ligands and uses thereof” (BSIM Therapeutics, S.A., priority 2014, dated 2023)
